Inhibition and Ki data for four molecules are collected here from patent publication US8937092B2, “Aryl or N-heteroaryl substituted methanesulfonamide derivatives as vanilloid receptor ligands” (Gruenenthal GmbH, priority 2011, dated 2015).

The target in this experiment is vanilloid receptor 1 (VR1/TRPV1 receptor) (Homo sapiens, UniProt Q8NER1). The experiment can be described thus: Functional FLIPR Ca2+ influx assay on vanilloid receptor 1, capsaicin (Cap) stimulus. It counts as cell-based. Conditions: for Ki: Ki from IC50 by Cheng-Prusoff, read-out: (f) Ki (human being) [nM], Cap. In a few lines: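 Antagonism of Ca2+ influx stimulated by capsaicin (100 nM) in CHO K1 cells transfected with human VR1, read with Fluo-4 dye in a FLIPR; value is concentration giving 50% displacement of capsaicin. Rat VR1 variant uses cultured rat dorsal root ganglion neurons in NGF-containing medium.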

By inhibition is commonly meant the share of the control response that was lost under treatment. As usually defined, the Ki is the dissociation constant of the complex between target and ligand, obtained from inhibition or displacement.

As for `COc1ccc(C)cc1-c1nc(C(F)(F)F)ccc1CNC(=O)C(C)c1ccc(CNS(C)(=O)=O)c(F)c1` (stereo not shown) [Example 45, 2-(3-fluoro-4-(methylsulfonamidomethyl)phenyl)-N-((2-(2-methoxy-5-methylphenyl)-6-(trifluoromethyl)pyridin-3-yl)methyl)propanamide], where the note is “inhibition at 1 μM, read-out: (f) inhibition (human being), Cap, @1 μM”, the inhibition at 1 µM came out at 15%.

Turning to `CC(C(=O)NCc1ccc(C(F)(F)F)nc1-c1cccc(Cl)c1)c1ccc(CNS(C)(=O)=O)c(F)c1` (stereo not shown) [Example 15, N-((2-(3-chlorophenyl)-6-(trifluoromethyl)pyridin-3-yl)methyl)-2-(3-fluoro-4-(methylsulfonamidomethyl)phenyl)propanamide], the inhibitory constant (Ki) amounted to 10 nM. With `Cc1cccc(-c2nc(C(F)(F)F)ccc2CNC(=O)C(C)c2ccc(CNS(N)(=O)=O)c(F)c2)c1` (stereo not shown) [Example 85, 2-(3-fluoro-4-((sulfamoylamino)methyl)phenyl)-N-((2-m-tolyl-6-(trifluoromethyl)pyridin-3-yl)methyl)propanamide], the inhibition constant (Ki) worked out at 3 nM. Take `Cc1cccc(-c2nc(C(F)(F)F)ccc2CNC(=O)C(C)c2ccc(CNS(C)(=O)=O)c(Cl)c2)c1` (stereo not shown) [Example 77, 2-(3-chloro-4-(methylsulfonamidomethyl)phenyl)-N-((2-m-tolyl-6-(trifluoromethyl)pyridin-3-yl)methyl)propanamide]: the inhibition constant (Ki) is 3 nM.
